From PMC7044277 (Nature Communications, 2020)
“And” between values parts separate entries of the source, which are not always exact repeats. Identical values can stand only once.

Assays:
Assay type in all cases: cell-based
[1] = molecular target: T1, 320 non-olfactory GPCRs (Homo sapiens, UniProt P04201); conditions: receptor MAS1; replicate values, Fig_4g
T1 construct: expressed in transfected cells; host or cells: HTLA cells

[2] = molecular target: T2, 320 non-olfactory GPCRs (Homo sapiens, UniProt Q92847)
T2 construct: expressed in transfected cells; host or cells: HTLA cells
T2 sequence (Q92847 whole entry): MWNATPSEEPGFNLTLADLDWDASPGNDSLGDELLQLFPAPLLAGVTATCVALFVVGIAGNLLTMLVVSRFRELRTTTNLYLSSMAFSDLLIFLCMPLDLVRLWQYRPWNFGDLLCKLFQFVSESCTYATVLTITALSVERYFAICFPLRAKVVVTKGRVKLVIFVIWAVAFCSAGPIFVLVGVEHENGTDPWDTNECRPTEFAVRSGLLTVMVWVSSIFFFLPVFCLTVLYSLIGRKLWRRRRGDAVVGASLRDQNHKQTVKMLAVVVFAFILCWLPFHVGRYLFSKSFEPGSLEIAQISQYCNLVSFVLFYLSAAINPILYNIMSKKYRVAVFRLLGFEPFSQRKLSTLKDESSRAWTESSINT

[3] = molecular target: T3, 320 non-olfactory GPCRs (Homo sapiens, UniProt Q96LB0); conditions: receptor MRGPRX3; replicate values, Fig_4g
T3 construct: expressed in transfected cells; host or cells: HTLA cells
T3 sequence (Q96LB0 whole entry): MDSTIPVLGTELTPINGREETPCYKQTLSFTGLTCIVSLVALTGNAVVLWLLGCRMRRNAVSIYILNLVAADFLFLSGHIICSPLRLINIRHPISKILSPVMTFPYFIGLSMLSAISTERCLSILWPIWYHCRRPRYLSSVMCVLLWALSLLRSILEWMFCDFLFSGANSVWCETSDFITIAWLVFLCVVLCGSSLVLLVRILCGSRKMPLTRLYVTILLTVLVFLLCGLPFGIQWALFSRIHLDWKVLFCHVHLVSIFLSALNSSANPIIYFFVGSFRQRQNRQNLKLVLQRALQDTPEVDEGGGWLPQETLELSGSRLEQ

[4] = molecular target: T4, 320 non-olfactory GPCRs (Homo sapiens, UniProt Q9BPV8); conditions: receptor P2RY13; replicate values, Fig_4g
T4 construct: expressed in transfected cells; host or cells: HTLA cells
T4 sequence (Q9BPV8 whole entry): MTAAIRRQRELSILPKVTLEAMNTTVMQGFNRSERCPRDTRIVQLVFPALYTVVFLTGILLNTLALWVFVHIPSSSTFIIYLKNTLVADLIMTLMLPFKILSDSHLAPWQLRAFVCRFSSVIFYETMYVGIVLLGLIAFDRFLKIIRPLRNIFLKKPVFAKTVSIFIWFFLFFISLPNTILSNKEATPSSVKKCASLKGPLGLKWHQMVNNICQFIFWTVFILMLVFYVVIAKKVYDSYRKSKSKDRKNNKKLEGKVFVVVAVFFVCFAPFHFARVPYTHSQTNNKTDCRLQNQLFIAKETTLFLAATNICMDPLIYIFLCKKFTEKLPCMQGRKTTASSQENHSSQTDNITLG
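Wherever Fold of Basal is given: compound tested at 1 µM final concentration.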
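Wherever GPCRome agonism screen response is given: fold over basal response of each receptor without drug.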

T1 sequence (P04201 whole entry): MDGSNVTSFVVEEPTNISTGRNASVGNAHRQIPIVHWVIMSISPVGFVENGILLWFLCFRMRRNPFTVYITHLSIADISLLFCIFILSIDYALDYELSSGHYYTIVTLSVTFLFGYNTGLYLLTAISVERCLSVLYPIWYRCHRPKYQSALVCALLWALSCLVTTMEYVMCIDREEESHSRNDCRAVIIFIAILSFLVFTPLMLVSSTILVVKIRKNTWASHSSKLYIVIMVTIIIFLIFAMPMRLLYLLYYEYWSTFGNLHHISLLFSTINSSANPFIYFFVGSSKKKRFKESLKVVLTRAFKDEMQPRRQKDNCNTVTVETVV

CCOc1cccc2cc(C(C)NCC3(O)CCCCC3)oc12 (stereo not shown) [O4LE6]
GPCRome agonism screen response [1]: 0.7017 and 0.6641 and 0.72
Fold of Basal [2]: 0.8362 and 0.6901 and 0.8172 and 0.8114
GPCRome agonism screen response [3]: 0.501 and 0.6269 and 0.3987 and 0.4556
GPCRome agonism screen response [4]: 0.7893 and 1.044 and 0.6466 and 2.085
